Reference: ChEMBL document CHEMBL1629655, “Affinity of Tomopenem (CS-023) for penicillin-binding proteins in Staphylococcus aureus, Escherichia coli, and Pseudomonas aeruginosa” (Antimicrob Agents Chemother, 2009)
Converted amounts (≈) assume the structure as drawn.

Experiments:
Pseudomonas aeruginosa [1] = experiment: Ratio of MIC for Pseudomonas aeruginosa PIR2a to MIC for Pseudomonas aeruginosa ATCC 15692; type: functional
Staphylococcus aureus [2] = experiment: Ratio of MIC for Staphylococcus aureus SRR2a to MIC for Staphylococcus aureus ATCC 6538P; type: functional
[3] = Displacement of [14C]benzylpenicillin from PBP4 in Pseudomonas aeruginosa ATCC 15692
Staphylococcus aureus [4] = experiment: Antibacterial activity against Staphylococcus aureus ATCC 6538P by microdilution method; type: functional, organism-based
Pseudomonas aeruginosa [5] = experiment: Ratio of MIC for Pseudomonas aeruginosa PRR4a to MIC for Pseudomonas aeruginosa ATCC 15692; type: functional
Escherichia coli [6] = experiment: Antibacterial activity against Escherichia coli EIR8a selected at 8 times MIC of imipenem by microdilution method; type: functional
[7] = Displacement of [14C]benzylpenicillin from PBP1B in Escherichia coli NIHJ
Escherichia coli [8] = experiment: Ratio of MIC for Escherichia coli ERR2b to MIC for Escherichia coli NIHJ; type: functional
[9] = Displacement of [14C]benzylpenicillin from PBP 5 in Pseudomonas aeruginosa ATCC 15692
[10] = Displacement of [14C]benzylpenicillin from PBP4 in Staphylococcus aureus ATCC 6538P
Escherichia coli [11] = experiment: Antibacterial activity against Escherichia coli EIR2b selected at 2 times MIC of imipenem by microdilution method; type: functional
Staphylococcus aureus [12] = experiment: Antibacterial activity against Staphylococcus aureus SMR4a […] MIC of meropenem by microdilution method; type: functional
Staphylococcus aureus [13] = experiment: Antibacterial activity against Staphylococcus aureus SMR2a selected at 2 times MIC of meropenem by microdilution method; type: functional
Escherichia coli [14] = experiment: Antibacterial activity against Escherichia coli NIHJ by microdilution method; type: functional, organism-based
Escherichia coli [15] = experiment: Antibacterial activity against Escherichia coli ERR2a selected at 2 times MIC of tomopenem by microdilution method; type: functional
Staphylococcus aureus [16] = experiment: Antibacterial activity against Staphylococcus aureus SIR2a selected at 2 times MIC of imipenem by microdilution method; type: functional
Escherichia coli [17] = experiment: Antibacterial activity against Escherichia coli ERR4a selected at 4 times MIC of tomopenem by microdilution method; type: functional
Escherichia coli [18] = experiment: Antibacterial activity against Escherichia coli EIR2a selected at 2 times MIC of imipenem by microdilution method; type: functional
Pseudomonas aeruginosa [19] = experiment: Antibacterial activity against Pseudomonas aeruginosa PIR2a selected at 2 times MIC of imipenem by microdilution method; type: functional
Escherichia coli [20] = experiment: Ratio of MIC for Escherichia coli ERR4a to MIC for Escherichia coli NIHJ; type: functional
[21] = Displacement of [14C]benzylpenicillin from PBP3 in Escherichia coli NIHJ
[22] = Displacement of [14C]benzylpenicillin from PBP1A in Pseudomonas aeruginosa ATCC 15692
Pseudomonas aeruginosa [23] = experiment: Antibacterial activity against Pseudomonas aeruginosa ATCC 15692 by microdilution method; type: functional, organism-based
[24] = Displacement of [14C]benzylpenicillin from PBP1 in Staphylococcus aureus ATCC 6538P
[25] = Displacement of [14C]benzylpenicillin from PBP2 in Pseudomonas aeruginosa ATCC 15692
Escherichia coli [26] = experiment: Antibacterial activity against Escherichia coli EIR4b selected at 4 times MIC of imipenem by microdilution method; type: functional
Escherichia coli [27] = experiment: Ratio of MIC for Escherichia coli EIR8a to MIC for Escherichia coli NIHJ; type: functional
Staphylococcus aureus [28] = experiment: Ratio of MIC for Staphylococcus aureus SMR2a to MIC for Staphylococcus aureus ATCC 6538P; type: functional
[29] = Displacement of [14C]benzylpenicillin from PBP5 in Escherichia coli NIHJ
Staphylococcus aureus [30] = experiment: Ratio of MIC for Staphylococcus aureus SIR2a selected at 2 times MIC of imipenem to MIC for Staphylococcus aureus ATCC 6538P; type: functional
Escherichia coli [31] = experiment: Ratio of MIC for Escherichia coli EIR2b to MIC for Escherichia coli NIHJ; type: functional
Escherichia coli [32] = experiment: Ratio of MIC for Escherichia coli EMR2a to MIC for Escherichia coli NIHJ; type: functional
Escherichia coli [33] = experiment: Ratio of MIC for Escherichia coli EIR2a to MIC for Escherichia coli NIHJ; type: functional
[34] = Displacement of [14C]benzylpenicillin from PBP4 in Escherichia coli NIHJ
Escherichia coli [35] = experiment: Ratio of MIC for Escherichia coli ERR8a to MIC for Escherichia coli NIHJ; type: functional
Escherichia coli [36] = experiment: Ratio of MIC for Escherichia coli EIR4a to MIC for Escherichia coli NIHJ; type: functional
Escherichia coli [37] = experiment: Ratio of MIC for Escherichia coli ERR2a selected to MIC for Escherichia coli NIHJ; type: functional
[38] = Displacement of [14C]benzylpenicillin from PBP1A in Escherichia coli NIHJ
Staphylococcus aureus [39] = experiment: Antibacterial activity against Staphylococcus aureus SRR2a selected at 2 times MIC of tomopenem by microdilution method; type: functional
Pseudomonas aeruginosa [40] = experiment: Antibacterial activity against Pseudomonas aeruginosa PMR2a selected at 2 times MIC of meropenem by microdilution method; type: functional
[41] = Displacement of [14C]benzylpenicillin from PBP2 in Escherichia coli NIHJ
[42] = Displacement of [14C]benzylpenicillin from PBP2 Staphylococcus aureus ATCC 6538P
Escherichia coli [43] = experiment: Antibacterial activity against Escherichia coli ERR2b selected at 2 times MIC of tomopenem by microdilution method; type: functional
Staphylococcus aureus [44] = experiment: Ratio of MIC for Staphylococcus aureus SMR4a to MIC for Staphylococcus aureus ATCC 6538P; type: functional
[45] = Displacement of [14C]benzylpenicillin from PBP1B in Pseudomonas aeruginosa ATCC 15692
Pseudomonas aeruginosa [46] = experiment: Ratio of MIC for Pseudomonas aeruginosa PMR2a to MIC for Pseudomonas aeruginosa ATCC 15692; type: functional
Escherichia coli [47] = experiment: Ratio of MIC for Escherichia coli EIR4b to MIC for Escherichia coli NIHJ; type: functional
Escherichia coli [48] = experiment: Antibacterial activity against Escherichia coli EIR4a selected at 4 times MIC of imipenem by microdilution method; type: functional
Escherichia coli [49] = experiment: Antibacterial activity against Escherichia coli EMR2a selected at 2 times MIC of meropenem by microdilution method; type: functional
[50] = Displacement of [14C]benzylpenicillin from PBP6 Escherichia coli NIHJ
Pseudomonas aeruginosa [51] = experiment: Antibacterial activity against Pseudomonas aeruginosa PRR4a selected at 4 times MIC of tomopenem by microdilution method; type: functional
Escherichia coli [52] = experiment: Antibacterial activity against Escherichia coli ERR8a selected at 8 times MIC of tomopenem by microdilution method; type: functional
[53] = Displacement of [14C]benzylpenicillin from PBP 6 in Pseudomonas aeruginosa ATCC 15692
[54] = Displacement of [14C]benzylpenicillin from PBP3 in Staphylococcus aureus ATCC 6538P
[55] = Displacement of [14C]benzylpenicillin from PBP3 in Pseudomonas aeruginosa ATCC 15692

C[C@@H](O)[C@H]1C(=O)N2C(C(=O)O)=C(S[C@@H]3CN[C@H](C(=O)N(C)C)C3)[C@H](C)[C@H]12 [MEROPENEM]
Ratio MIC (Pseudomonas aeruginosa [1]): 8 | Ratio MIC (Staphylococcus aureus [2]): 8 | IC50 [3]: 0.0033 µg/mL (≈ 0.00861 µM) | IC50 (Staphylococcus aureus [4]): 0.06 µg/mL (≈ 0.156 µM) | MBC (Staphylococcus aureus [4]): 0.12 µg/mL (≈ 0.313 µM) | MIC (Staphylococcus aureus [4]): 0.06 µg/mL (≈ 0.156 µM) | Ratio MIC (Pseudomonas aeruginosa [5]): 4 | MIC (Escherichia coli [6]): 0.03 µg/mL | IC50 [7]: 0.77 µg/mL (≈ 2.01 µM) | Ratio MIC (Escherichia coli [8]): 2 | IC50 [9]: 4.5 µg/mL (≈ 11.7 µM) | IC50 [10]: 0.071 µg/mL (≈ 0.185 µM) | MIC (Escherichia coli [11]): 0.03 µg/mL | MIC (Staphylococcus aureus [12]): 0.25 µg/mL | MIC (Staphylococcus aureus [13]): 0.25 µg/mL | MBC (Escherichia coli [14]): 0.03 µg/mL (≈ 0.0782 µM) | MIC (Escherichia coli [14]): 0.03 µg/mL (≈ 0.0782 µM) | MIC (Escherichia coli [15]): 0.03 µg/mL | MIC (Staphylococcus aureus [16]): 0.12 µg/mL | MIC (Escherichia coli [17]): 0.06 µg/mL | MIC (Escherichia coli [18]): 0.03 µg/mL | MIC (Pseudomonas aeruginosa [19]): 4 µg/mL | Ratio MIC (Escherichia coli [20]): 2 | IC50 [21]: 0.39 µg/mL (≈ 1.02 µM) | IC50 [22]: 0.12 µg/mL (≈ 0.313 µM) | MBC (Pseudomonas aeruginosa [23]): 1 µg/mL (≈ 2.61 µM) | MIC (Pseudomonas aeruginosa [23]): 1 µg/mL (≈ 2.61 µM) | IC50 [24]: 0.044 µg/mL (≈ 0.115 µM) | IC50 [25]: 0.018 µg/mL (≈ 0.0469 µM) | MIC (Escherichia coli [26]): 0.12 µg/mL | Ratio MIC (Escherichia coli [27]): 1 | Ratio MIC (Staphylococcus aureus [28]): 8 | IC50 [29]: 1.2 µg/mL (≈ 3.13 µM) | Ratio MIC (Staphylococcus aureus [30]): 4 | Ratio MIC (Escherichia coli [31]): 1 | Ratio MIC (Escherichia coli [32]): 2 | Ratio MIC (Escherichia coli [33]): 1 | IC50 [34]: 0.047 µg/mL (≈ 0.123 µM) | Ratio MIC (Escherichia coli [35]): 2 | Ratio MIC (Escherichia coli [36]): 1 | Ratio MIC (Escherichia coli [37]): 1 | IC50 [38]: 0.82 µg/mL (≈ 2.14 µM) | MIC (Staphylococcus aureus [39]): 0.25 µg/mL | MIC (Pseudomonas aeruginosa [40]): 8 µg/mL | IC50 [41]: 0.016 µg/mL (≈ 0.0417 µM) | IC50 [42]: 0.26 µg/mL (≈ 0.678 µM) | MIC (Escherichia coli [43]): 0.06 µg/mL | ratio (Staphylococcus aureus [44]): 8 | IC50 [45]: 0.11 µg/mL (≈ 0.287 µM) | Ratio MIC (Pseudomonas aeruginosa [46]): 16 | Ratio MIC (Escherichia coli [47]): 4 | MIC (Escherichia coli [48]): 0.03 µg/mL | MIC (Escherichia coli [49]): 0.06 µg/mL | IC50 [50]: 15 µg/mL (≈ 39.1 µM) | MIC (Pseudomonas aeruginosa [51]): 2 µg/mL | MIC (Escherichia coli [52]): 0.06 µg/mL | IC50 [53]: 4.5 µg/mL (≈ 11.7 µM) | IC50 [54]: > 130 µg/mL | IC50 [55]: 0.013 µg/mL (≈ 0.0339 µM)
